Results as given in patent US9080186B2, “Compositions comprising cationic amphiphiles and colipids for delivering therapeutic molecules” (Agave Pharma, Incorporated, priority 2009, dated 2015).

Experiment: siRNA remaining in water (supernatant OD260) after precipitation with cationic lipid
Format: physicochemical
Design: unit not given here
Procedure: A nucleic acid/cationic lipid salt was prepared by the following method. Two mg of the cationic lipid was dissolved in 0.1 mL of chloroform in a clean, dry borosilicate clear glass vial and the chloroform was evaporated off by blowing nitrogen gas into the vial and any remaining trace amount of chloroform was removed by drying in vacuo in a vacuum chamber. The vial was removed from the vacuum chamber and 0.1 mL of ethanol was added. The vial was sealed with TEFLON®-lined cap and tightly wrapped with a sealing tape. The vial was vortexed or/and sonicated to dissolve the cationic lipid.
The solution of the cationic lipid in ethanol was added to an aqueous solution containing 1 mg siRNA. The addition of the cationic lipid to the siRNA solution caused immediate aggregation forming a water-insoluble cationic lipid/nucleic acid salt comprised of the cationic lipid and siRNA.
The water-insoluble cationic lipid/nucleic acid salt in a tube was then centrifuged in an Eppendorf microcentrifuge at maximum speed for 15 minutes to form a pellet. The supernatant after each centrifugation were collected and the amount siRNA in the supernatant was measured with OD260.
Table 2 is the summary of measurement of the ratio of siRNA/lipid which rendering siRNA insoluble in water.

siRNA remaining in water (siRNA/lipids ratio 0.5)	siRNA remaining in water (siRNA/lipids ratio 0.75)	siRNA remaining in water (siRNA/lipids ratio 1)	siRNA remaining in water (siRNA/lipids ratio 1.5)	siRNA remaining in water (siRNA/lipids ratio 2)	Compound
61	57	46	29	6	CCCCCCCC/C=C\CCCCCCCCOCC(C[N+](C)(C)C)OCCCCCCCC/C=C\CCCCCCCC.[Cl-] (stereo not drawn) [DOTMA, N-[1-(2,3-dioleyloxy)propyl]-N,N,N-trimethylammonium chloride]
63	55	45	28	10	CCCCCCCC/C=C\CCCCCCCC(=O)OCC(C[N+](C)(C)C)OC(=O)CCCCCCC/C=C\CCCCCCCC.[Cl-] (stereo not drawn) [DOTAP, N-(l-(2,3-dioleoyloxy)propyl)-N,N,N-trimethylammonium chloride]

Compound	siRNA remaining in water (siRNA/lipids ratio 0.5)	siRNA remaining in water (siRNA/lipids ratio 0.75)	siRNA remaining in water (siRNA/lipids ratio 1)	siRNA remaining in water (siRNA/lipids ratio 1.5)	siRNA remaining in water (siRNA/lipids ratio 2)
CC(C)CCC[C@@H](C)[C@H]1CC[C@H]2[C@@H]3CC=C4C[C@@H](OC(=O)NCCN(C)C)CC[C@]4(C)[C@H]3CC[C@]12C.Cl [DC-Chol, cholesteryl 3β-N-(dimethylaminoethyl)carbamate hydrochloride]	72	63	57	35	13
